{
  "source": "patent US20220370454A1",
  "about": "“METHODS FOR TREATING CENTRAL NERVOUS SYSTEM DISORDERS WITH MUSCARINIC RECEPTOR ACTIVATION AND ANTIPSYCHOTICS” (Karuna Therapeutics, Inc., priority 2021, published 2022)",
  "key": {"male C57BL/6J mice": {"tested_on": "male C57BL/6J mice", "test": "Conditioned avoidance response (CAR) assay, Example 2 (enhanced aripiprazole formulation, two sequential injections)", "conditions": "for Average avoidance response percentages, A alone: Example 2", "experimental": "Also, in Example 2, compounds were delivered as two sequential subcutaneous injections rather than one.\nIn Example 2, a 5% vehicle solution was prepared from 1.0 mL Tween-80 dissolved in 19.0 mL saline. […] The average pH was 3.8 and compound was dosed at a 10 mL/kg bodyweight volume. Drug solutions were prepared fresh on each dosing day before testing. All solutions were mixed or vortexed thoroughly before injections.\nSubjects (N=25) were male C57BL/6J, purchased from Jackson Labs, and successfully trained for CAR. Mice were first tested in an aripiprazole dose response study comprised of VEH, 0.3, 1, 3, and 10 mg/kg (data not shown). Dose order was randomly assigned for each mouse. Mice were returned to their home cages for 30 minutes following injection to allow the drug to take effect before testing began.\nTo match the formulation procedure from Example 1 while maintaining an appropriate volume, a relatively high concentration aripiprazole stock was first made and then diluted to the target concentrations for dosing. A 5% Tween-80 solution was prepared from 2.0 mL Tween-80 dissolved in 38.0 mL of saline. A 3.0 mg/kg aripiprazole solution as a stock was prepared from 3.0 mg aripiprazole dissolved in 5.0 mL 5% Tween-80, giving a concentration of 0.6 mg/mL. At a dosing volume of 5 mL/kg, equaling 3.0 mg/kg. […] The average pH was 6.2. For 0.3 mg/kg aripiprazole, 0.6 mL of the 3 mg/kg aripiprazole stock was diluted in 5.4 mL of 5% Tween-80. For 0.1 mg/kg aripiprazole, 0.2 mL of the 3 mg/kg aripiprazole stock was dissolved in 5.8 mL of 5% Tween-80.\nThe 1.0 mg/kg xanomeline solution was prepared from 3.05 mg xanomeline dissolved in 10.0 mL of sterile water, giving a concentration of 0.2 mg/mL. At a dosing volume of 10 mL/kg, this equals 1.0 mg/kg. (The drug mass adjustment factor between xanomeline free base and xanomeline tartrate is 1.5262.) The average pH was 4.4.\nDose order was randomly assigned for each mouse. Injection 1 and Injection 2 occurred in sequence, with no gap time. Mice were returned to their home cages for 30 minutes following injection to allow the drugs to take effect before testing began. Mice were injected with vehicle (saline at 10 mL/kg SC and Tween-80 at 5 mL/kg IP) the day before dosing days. Mice were only dosed if their average percent avoidance values for the previous two non-dose days was >85%.\nThe study then evaluated the effect of blocking muscarinic receptors (via scopolamine) on the activity and efficacy of aripiprazole in the Conditioned Avoidance Response (CAR) assay. The aripiprazole solution was prepared as before. To prepare the 0.3 mg/kg scopolamine solution, 3.397 mg scopolamine was dissolved in 40 mL of saline. The actual drug weight of SCOP in this solution is 2.4 mg (adjusted by a factor 1.41499 for the salt content), giving a concentration of 0.06 mg/mL. At a dosing volume of 5 mL/kg, this equals 0.3 mg/kg. The average pH of this solution was 7.3."}, "Adult male C57BL/6J mice": {"tested_on": "Adult male C57BL/6J mice", "test": "Conditioned avoidance response (CAR) assay, Example 1", "type": "in vivo", "conditions": "for Effect on conditioned avoidance responding (dose-response, FIG. 1): each compound alone, compiled independent studies; for Avoidance responding versus vehicle-vehicle control, drug alone: subthreshold doses alone (data not shown); for Blockade of xanomeline's effects in CAR by muscarinic antagonist: maximally active dose of xanomeline, FIG. 11, N=14", "excerpt": "In the CAR assay, mice were first trained to avoid a foot shock (i.e., crossing from one side of a shuttle box to another within 10 secs) to a performance criterion of ≥85% avoidance responses. A repeated-measures, counterbalanced design was used. Two experiments evaluated the effects of blocking central (with scopolamine) vs. peripheral (with N-methylscopolamine) muscarinic receptors. […] “Subthreshold” of “sub-efficacious” refers to doses that are lower than the therapeutically effective amount for monotherapy but which could be effective in synergy with the antipsychotics tested.\nReferring to FIG. 1, the compiled data over independent studies with each compound were analyzed separately via one-way repeated-measures ANOVA. A Dunnett post-hoc test was performed and that dose group significance was only assessed against Vehicle.\nPost hoc analysis vs. xanomeline alone (*) and vs. comparator dose alone (#)."}, "[1]": {"tested_on": "MK-801-induced locomotor activity in C57BL/6J mice", "test": "MK-801-induced locomotor activity (LMA) assay", "type": "in vivo", "excerpt": "In the CAR assay, mice were first trained to avoid a foot shock (i.e., crossing from one side of a shuttle box to another within 10 secs) to a performance criterion of ≥85% avoidance responses. A repeated-measures, counterbalanced design was used. Two experiments evaluated the effects of blocking central (with scopolamine) vs. peripheral (with N-methylscopolamine) muscarinic receptors. Additional experiments evaluated augmentation and synergy by combining dosing subthreshold doses of xanomeline plus risperidone or aripiprazole. “Subthreshold” of “sub-efficacious” refers to doses that are lower than the therapeutically effective amount for monotherapy but which could be effective in synergy with the antipsychotics tested.\nIn the LMA assay, varying doses of xanomeline and risperidone were co-formulated. […] After the experiment, plasma and brain tissue were collected to determine drug exposure.\nData are mean (±SEM) total distance traveled."}, "[2]": {"test": "Brain and plasma drug exposure collected after the LMA study", "type": "in vivo, mice", "excerpt": "After the experiment, plasma and brain tissue were collected to determine drug exposure."}},
  "data": [
    {"smiles": "O=C1CCc2ccc(OCCCCN3CCN(c4cccc(Cl)c4Cl)CC3)cc2N1", "note": "[Aripiprazole, aripiprazole]", "values": [
      {"measurement": "Average avoidance response percentages, A alone", "setting": "male C57BL/6J mice; aripiprazole 0.1 mg/kg IP alone", "result": 14, "unit": "%"},
      {"measurement": "Average avoidance response percentages, A alone", "setting": "male C57BL/6J mice; aripiprazole 0.3 mg/kg IP alone", "result": 31, "unit": "%"},
      {"measurement": "Effects on CAR activity endpoints", "setting": "male C57BL/6J mice; aripiprazole 3 mg/kg IP, FIG. 18, N=15", "result": "robust effects on CAR activity endpoints"},
      {"measurement": "Escape failures", "setting": "male C57BL/6J mice; aripiprazole 0.1, 0.3 mg/kg with or without xanomeline 1 mg/kg", "result": "No dose of aripiprazole or combination dose with xanomeline resulted in escape failures"},
      {"measurement": "Disruption of CAR performance (dose response)", "setting": "male C57BL/6J mice; aripiprazole 0.3, 1, 3 and 10 mg/kg, data not shown", "result": "effective at disrupting CAR performance in a dose-related manner"},
      {"measurement": "Escape failures", "setting": "male C57BL/6J mice; aripiprazole dose response study, 0.3-10 mg/kg", "result": "not evident at any doses"},
      {"measurement": "ED50 in CAR", "setting": "male C57BL/6J mice; aripiprazole dose response study, Example 2 formulation", "result": "~0.3", "unit": "mg/kg"},
      {"measurement": "Average avoidance response percentages, A alone", "setting": "Adult male C57BL/6J mice; aripiprazole 1 mg/kg alone", "result": 2, "unit": "%"},
      {"measurement": "Average avoidance response percentages, A alone", "setting": "Adult male C57BL/6J mice; aripiprazole 3 mg/kg alone", "result": 6, "unit": "%"},
      {"measurement": "Effect on conditioned avoidance responding (dose-response, FIG. 1)", "setting": "Adult male C57BL/6J mice", "result": "dose-dependently reduced conditioned avoidance responding"},
      {"measurement": "Avoidance responding versus vehicle-vehicle control, drug alone", "setting": "Adult male C57BL/6J mice", "result": "did not significantly differ from vehicle-vehicle control conditions"}
    ]},
    {"smiles": "C[N+]1(C)[C@@H]2C[C@@H](OC(=O)[C@H](CO)c3ccccc3)C[C@H]1[C@@H]1O[C@@H]12", "note": "[N-methyl-scopolamine, N-methylscopolamine]", "values": [
      {"measurement": "Blockade of the activity of xanomeline in CAR", "setting": "Adult male C57BL/6J mice; 100-fold higher dose of N-methyl-scopolamine", "result": "failed to block the activity of xanomeline"},
      {"measurement": "Blockade of xanomeline's effects in CAR by muscarinic antagonist", "setting": "Adult male C57BL/6J mice", "result": "had no effect"}
    ]},
    {"smiles": "Cc1nc2n(c(=O)c1CCN1CCC(c3noc4cc(F)ccc34)CC1)CCCC2", "note": "[Risperidone, risperidone]", "values": [
      {"measurement": "Activity alone against MK-801 stimulated activity", "setting": "[1]; risperidone 0.001 mg/kg alone", "result": "Inactive"},
      {"measurement": "Effect on conditioned avoidance responding (dose-response, FIG. 1)", "setting": "Adult male C57BL/6J mice", "result": "dose-dependently reduced conditioned avoidance responding"},
      {"measurement": "Average avoidance response percentages, R alone", "setting": "Adult male C57BL/6J mice; risperidone 0.03 mg/kg alone", "result": 5, "unit": "%"},
      {"measurement": "Average avoidance response percentages, R alone", "setting": "Adult male C57BL/6J mice; risperidone 0.1 mg/kg alone", "result": 26, "unit": "%"},
      {"measurement": "Average avoidance response percentages, R alone", "setting": "Adult male C57BL/6J mice; risperidone 0.3 mg/kg alone", "result": 85, "unit": "%"},
      {"measurement": "Avoidance responding versus vehicle-vehicle control, drug alone", "setting": "Adult male C57BL/6J mice", "result": "did not significantly differ from vehicle-vehicle control conditions"}
    ]},
    {"smiles": "CCCCCCOc1nsnc1C1=CCCN(C)C1", "note": "[Xanomeline, xanomeline]", "values": [
      {"measurement": "Activity in the CAR assay (percentage avoidance responses and latency to respond)", "setting": "male C57BL/6J mice; 1 mg/kg dose alone", "result": "inactive in the CAR assay"},
      {"measurement": "Average avoidance response percentages, X alone", "setting": "male C57BL/6J mice; xanomeline 1 mg/kg SC alone, Example 2, N=16", "result": 6, "unit": "%"},
      {"measurement": "Xanomeline plasma exposure across the increasing doses of risperidone", "setting": "[2]; co-dosed with risperidone", "result": "no significant increase"},
      {"measurement": "Brain level of the named substance", "setting": "[2]; treatment: MK-801 0.3 + risperidone 0.001 + xanomeline 1 mg/kg", "result": "143.4 ± 4.8", "unit": "ng/g"},
      {"measurement": "Brain level of the named substance", "setting": "[2]; treatment: MK-801 0.3 + risperidone 0.003 + xanomeline 1 mg/kg", "result": "154.6 ± 9.3", "unit": "ng/g"},
      {"measurement": "Brain level of the named substance", "setting": "[2]; treatment: MK-801 0.3 + risperidone 0.01 + xanomeline 1 mg/kg, * p<0.05 vs xanomeline alone", "result": "184.9 ± 15.5* ng/g"},
      {"measurement": "Brain level of the named substance", "setting": "[2]; treatment: MK-801 0.3 + xanomeline 1 mg/kg", "result": "126.0 ± 6.6", "unit": "ng/g"},
      {"measurement": "Activity alone against MK-801 stimulated activity", "setting": "[1]; xanomeline 1 mg/kg alone", "result": "Inactive"},
      {"measurement": "Effect on conditioned avoidance responding (dose-response, FIG. 1)", "setting": "Adult male C57BL/6J mice", "result": "dose-dependently reduced conditioned avoidance responding"},
      {"measurement": "Average avoidance response percentages, X alone", "setting": "Adult male C57BL/6J mice; xanomeline 1 mg/kg alone, aripiprazole combination study (co-formulation, single SC injection), N=16", "result": 5, "unit": "%"},
      {"measurement": "Average avoidance response percentages, X alone", "setting": "Adult male C57BL/6J mice; xanomeline 1 mg/kg alone, risperidone combination study, N=17", "result": 7, "unit": "%"},
      {"measurement": "Average avoidance response percentages, X alone", "setting": "Adult male C57BL/6J mice; xanomeline 3 mg/kg alone, aripiprazole combination study", "result": 20, "unit": "%"}
    ]},
    {"smiles": "CN1[C@@H]2C[C@@H](OC(=O)[C@H](CO)c3ccccc3)C[C@H]1[C@@H]1O[C@@H]12", "note": "[scopolamine]", "values": [
      {"measurement": "Effect of scopolamine on the activity of aripiprazole in CAR", "setting": "male C57BL/6J mice; 0.3 mg/kg scopolamine SC 15 minutes before 3.0 mg/kg aripiprazole", "result": "slight, but statistically significant effect in reducing the activity of aripiprazole"},
      {"measurement": "Blockade of the activity of xanomeline in CAR", "setting": "Adult male C57BL/6J mice; SCOP 0.03 mg/kg", "result": "partially blocks"},
      {"measurement": "Blockade of the activity of xanomeline in CAR", "setting": "Adult male C57BL/6J mice; SCOP 0.1 mg/kg", "result": "fully"},
      {"measurement": "Activity alone in CAR", "setting": "Adult male C57BL/6J mice; SCOP 0.3 mg/kg", "result": "has no activity alone in CAR"},
      {"measurement": "Blockade of xanomeline's effects in CAR by muscarinic antagonist", "setting": "Adult male C57BL/6J mice", "result": "dose-dependently blocked xanomeline's effects"},
      {"measurement": "Reversal of xanomeline activity in CAR", "setting": "Adult male C57BL/6J mice; scopolamine 0.3 mg/kg", "result": "fully reversed xanomeline activity"},
      {"measurement": "Effect on risperidone's antipsychotic-like effect in CAR", "setting": "Adult male C57BL/6J mice; scopolamine 0.3 mg/kg, FIG. 12, N=16", "result": "failed to attenuate"}
    ]}
  ]
}
